Source: patent publication US8716180B2 (priority 2005, dated 2014)
Where two headings read alike, the source gives them in different places.

Tested on: GFP genetically modified strain of F. graminearum
Type: in vivo, Fusarium graminearum
Settings: seed treatment 5 g a.i./100 kg seeds

Measured: Intensity of F. graminearum (PCR analysis: 0 to 4 scale)

N#Cc1c[nH]cc1-c1cccc2c1OC(F)(F)O2 [Lot B, fludioxonil]
0: Beginning of earing (GS 51), 1st internode | Beginning of earing (GS 51), 2nd internode | Beginning of earing (GS 51), 3rd internode | Beginning of earing (GS 51), 4th internode | Beginning of earing (GS 51), ear | Ear 1-2 cm (GS 31), First internode | Ear 1-2 cm (GS 31), Future internodes and ear | Ear 1-2 cm (GS 31), Second internode | End of tillering (GS 29), Above bottom of the plant (0.5 cm) | End of tillering (GS 29), Bottom of the plant (0.5 cm) | End of tillering (GS 29), Secondary roots | End of tillering (GS 29), primary roots | End of tillering (GS 29), rhizome | Full maturity (GS 94), 1st internode | Full maturity (GS 94), 2nd internode | Full maturity (GS 94), 3rd internode | Full maturity (GS 94), 4th internode | Full maturity (GS 94), 5th internode | Full maturity (GS 94), Ear + grains
